Source: patent publication US20180319810A1, “SUBSTITUTED BRIDGED UREA ANALOGS AS SIRTUIN MODULATORS” (GlaxoSmithKline Intellectual Property (No.2) Limited, priority 2014, published 2018)

biological target: T1, SIRT1 (Homo sapiens, UniProt Q96EB6); experiment: Trp mass spectrometry assay of SIRT1 activation; format: biochemical; conditions: Trp peptide Ac-R-H-K-K(Ac)-W-NH2 0.5 μM, 120 μM βNAD+, 10 nM SIRT1, 25 min, 25° C.
T1 sequence (Q96EB6 1-747): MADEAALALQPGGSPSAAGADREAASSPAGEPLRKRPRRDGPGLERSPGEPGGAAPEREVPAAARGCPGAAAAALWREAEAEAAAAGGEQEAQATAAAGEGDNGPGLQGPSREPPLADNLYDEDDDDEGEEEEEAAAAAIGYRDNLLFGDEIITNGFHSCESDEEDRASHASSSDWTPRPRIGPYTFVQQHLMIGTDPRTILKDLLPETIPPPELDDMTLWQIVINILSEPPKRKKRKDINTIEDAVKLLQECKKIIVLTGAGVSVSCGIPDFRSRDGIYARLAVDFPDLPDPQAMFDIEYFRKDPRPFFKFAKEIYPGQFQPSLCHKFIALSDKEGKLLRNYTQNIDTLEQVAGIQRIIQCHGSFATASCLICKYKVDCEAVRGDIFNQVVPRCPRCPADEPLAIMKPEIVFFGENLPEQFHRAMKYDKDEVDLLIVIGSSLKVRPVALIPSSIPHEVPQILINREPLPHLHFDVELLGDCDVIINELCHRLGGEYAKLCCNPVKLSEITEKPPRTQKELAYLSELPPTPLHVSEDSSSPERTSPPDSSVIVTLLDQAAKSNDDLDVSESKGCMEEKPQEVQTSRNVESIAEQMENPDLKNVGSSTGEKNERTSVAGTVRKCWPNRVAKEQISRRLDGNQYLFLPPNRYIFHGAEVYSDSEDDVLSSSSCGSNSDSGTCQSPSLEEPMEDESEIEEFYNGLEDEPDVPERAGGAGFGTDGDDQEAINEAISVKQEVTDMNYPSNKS
Description: Mass spectrometry based assays were used to identify modulators of SIRT1 activity. […] The peptide was labeled with the fluorophore 5TMR (excitation 540 nm/emission 580 nm) at the C-terminus. The sequence of the peptide substrate was based on p53 with several modifications. In addition, the methionine residue naturally present in the sequence was replaced with the norleucine because the methionine may be susceptible to oxidation during synthesis and purification.
The Trp mass spectrometry assay was conducted as follows. […] The SIRT1 protein was obtained by cloning the SirT1 gene into a T7-promoter containing vector, which was then expressed in BL21(DE3) bacterial cells and purified as described in further detail below. Test compound was added at varying concentrations to this reaction mixture and the resulting reactions were monitored. After the 25 minute incubation with SIRT1, 10 μL of 10% formic acid was added to stop the reaction. The resulting reactions were sealed and frozen for later mass spec analysis. The relative SIRT1 activity was then determined by measuring the amount of O-acetyl-ADP-ribose (OAADPR) formed (or, alternatively, the amount of deacetylated Trp peptide generated) by the NAD-dependent sirtuin deacetylation reaction in the presence of varying concentrations of the test compound versus control reactions lacking the test compound.
The degree to which the test agent activated deacetylation by SIRT1 was expressed as EC1.5 (i.e., the concentration of compound required to increase SIRT1 activity by 50% over the control lacking test compound), and Percent Maximum Activation (i.e., the maximum activity relative to control (100%) obtained for the test compound).
This time point was the same as that used for test compounds and, within the linear range, the endpoint represents a change in velocity.
For the above assay, SIRT1 protein was expressed and purified as follows. The SirT1 gene was cloned into a T7-promoter containing vector and transformed into BL21(DE3). The protein was expressed by induction with 1 mM IPTG as an N-terminal His-tag fusion protein at 18° C. overnight and harvested at 30,000×g. Cells were lysed with lysozyme in lysis buffer (50 mM Tris-HCl, 2 mM Tris[2-carboxyethyl]phosphine (TCEP), 10 μM ZnCl2, 200 mM NaCl) and further treated with sonication for 10 min for complete lysis. The protein was purified over a Ni-NTA column (Amersham) and fractions containing pure protein were pooled, concentrated and run over a sizing column (Sephadex S200 26/60 global). The peak containing soluble protein was collected and run on an Ion-exchange column (MonoQ). Gradient elution (200 mM-500 mM NaCl) yielded pure protein. This protein was concentrated and dialyzed against dialysis buffer (20 mM Tris-HCl, 2 mM TCEP) overnight. The protein was aliquoted and frozen at −80° C. until further use.
“NT” means not tested; “ND” means not determinable.

| TRP Activity (EC1.5, concentration of compound required to increase SIRT1 activity by 50% over control) | TRP MAX RESP (percent maximum fold activation relative to control) | Compound |
| --- | --- | --- |
| A (EC1.5<1 μM) | A (Fold activation ≥150%) | O=C(NC1CC1)N1c2nc(-c3cccc(C(F)(F)F)c3)ncc2N2CCC[C@H]1C2 [Example 87, (9S)—N-cyclopropyl-2-(3-(trifluoromethyl)phenyl)-8,9-dihydro-6H-5,9-methanopyrimido[4,5-b][1,4]diazocine-10(7H)-carboxamide] |
| B (EC1.5 1-25 μM) |  | CN(C)c1ccc(-c2ncc3c(n2)N(C(=O)Nc2ccccn2)[C@H]2CCN3C2)cn1 [Example 9, (8S)-2-(6-(dimethylamino)pyridin-3-yl)-N-(pyridin-2-yl)-7,8-dihydro-5,8-methanopyrimido[4,5-b][1,4]diazepine-9(6H)-carboxamide] |
| A (EC1.5<1 μM) | A (Fold activation ≥150%) | O=C(Nc1cnc(OC[C@H](O)CO)cn1)N1c2nc(-c3cccc(C(F)(F)F)c3)ncc2N2CCC[C@H]1C2 [Example 97, (9S)—N-(5-((R)-2,3-dihydroxypropoxy)pyrazin-2-yl)-2-(3-(trifluoromethyl)phenyl)-8,9-dihydro-6H-5,9-methanopyrimido[4,5-b][1,4]diazocine-10(7H)-carboxamide] |
| B (EC1.5 1-25 μM) | A (Fold activation ≥150%) | Cc1nc(-c2cccc(C(F)(F)F)c2)nc2c1N1CC[C@@H](C1)N2C(=O)Nc1cnc(OC[C@H](O)CO)nc1 [Example 55, (8S)—N-(2-((R)-2,3-dihydroxypropoxy)pyrimidin-5-yl)-4-methyl-2-(3-(trifluoromethyl)phenyl)-7,8-dihydro-5,8-methanopyrimido[4,5-b][1,4]diazepine-9(6H)-carboxamide] |
| B (EC1.5 1-25 μM) | A (Fold activation ≥150%) | O=C(Nc1ccc(OC[C@@H](O)CO)cn1)N1c2nc(-c3cccc(C(F)(F)F)c3)ncc2N2CC[C@H]1C2 [Example 42, (8S)—N-(5-((S)-2,3-dihydroxypropoxy)pyridin-2-yl)-2-(3-(trifluoromethyl)phenyl)-7,8-dihydro-5,8-methanopyrimido[4,5-b][1,4]diazepine-9(6H)-carboxamide] |
| B (EC1.5 1-25 μM) | A (Fold activation ≥150%) | O=C(Nc1ncc(OC[C@@H](O)CO)cn1)N1c2nc(-c3cccc(C(F)(F)F)c3)ncc2N2CCC[C@H]1C2 [Example 93, (9S)—N-(5-((S)-2,3-dihydroxypropoxy)pyrimidin-2-yl)-2-(3-(trifluoromethyl)phenyl)-8,9-dihydro-6H-5,9-methanopyrimido[4,5-b][1,4]diazocine-10(7H)-carboxamide] |
| B (EC1.5 1-25 μM) | A (Fold activation ≥150%) | C[C@@H](NC(=O)c1ncc2c(n1)N(C(=O)Nc1cnc(OC[C@H](O)CO)cn1)[C@H]1CCCN2C1)C(F)(F)F [Example 69] |
| B (EC1.5 1-25 μM) | A (Fold activation ≥150%) | O=C(Nc1cncc(OC[C@@H](O)CO)n1)N1c2nc(-c3cccc(C(F)(F)F)c3)ncc2N2CC[C@H]1C2 [Example 50, (8S)—N-(6-((S)-2,3-dihydroxypropoxy)pyrazin-2-yl)-2-(3-(trifluoromethyl)phenyl)-7,8-dihydro-5,8-methanopyrimido[4,5-b][1,4]diazepine-9(6H)-carboxamide] |
| A (EC1.5<1 μM) | A (Fold activation ≥150%) | O=C(Nc1ncc(OC[C@H](O)CO)cn1)N1c2nc(-c3cccc(C(F)(F)F)c3)ncc2N2CCC[C@H]1C2 [Example 105, (9S)—N-(5-((R)-2,3-dihydroxypropoxy)pyrimidin-2-yl)-2-(3-(trifluoromethyl)phenyl)-8,9-dihydro-6H-5,9-methanopyrimido[4,5-b][1,4]diazocine-10(7H)-carboxamide] |
| B (EC1.5 1-25 μM) | A (Fold activation ≥150%) | C[C@@H](NC(=O)c1ncc2c(n1)N(C(=O)Nc1cc(OC[C@H](O)CO)ncn1)[C@H]1CCCN2C1)C(F)(F)F [Example 77, (9S)—N10-(6-((R)-2,3-dihydroxypropoxy)pyrimidin-4-yl)-N2-((R)-1,1,1-trifluoropropan-2-yl)-8,9-dihydro-6H-5,9-methanopyrimido[4,5-b][1,4]diazocine-2,10(7H)-dicarboxamide] |
| B (EC1.5 1-25 μM) | A (Fold activation ≥150%) | Cc1nc(-c2cccc(C(F)(F)F)c2)nc2c1N1CC[C@@H](C1)N2C(=O)Nc1ccc(OC[C@H](O)CO)cn1 [Example 48, (8S)—N-(5-((R)-2,3-dihydroxypropoxy)pyridin-2-yl)-4-methyl-2-(3-(trifluoromethyl)phenyl)-7,8-dihydro-5,8-methanopyrimido[4,5-b][1,4]diazepine-9(6H)-carboxamide] |
| B (EC1.5 1-25 μM) | A (Fold activation ≥150%) | Cc1nc(-c2cccc(C(F)(F)F)c2)nc2c1N1CC[C@@H](C1)N2C(=O)Nc1nccc(OC[C@@H](O)CO)n1 [Example 47, (8S)—N-(4-((S)-2,3-dihydroxypropoxy)pyrimidin-2-yl)-4-methyl-2-(3-(trifluoromethyl)phenyl)-7,8-dihydro-5,8-methanopyrimido[4,5-b][1,4]diazepine-9(6H)-carboxamide] |
| B (EC1.5 1-25 μM) | A (Fold activation ≥150%) | Cc1cc(-c2ncc3c(n2)N(C(=O)Nc2cccnc2)[C@H]2CCCN3C2)ccn1 [Example 114, (9S)-2-(2-methylpyridin-4-yl)-N-(pyridin-3-yl)-8,9-dihydro-6H-5,9-methanopyrimido[4,5-b][1,4]diazocine-10(7H)-carboxamide] |

| Compound | TRP Activity (EC1.5, concentration of compound required to increase SIRT1 activity by 50% over control) | TRP MAX RESP (percent maximum fold activation relative to control) |
| --- | --- | --- |
| O=C(NC1CCCC1)N1c2nc(-c3cccc(C(F)(F)F)c3)ncc2N2CC[C@H]1C2 [Example 52, (8S)—N-cyclopentyl-2-(3-(trifluoromethyl)phenyl)-7,8-dihydro-5,8-methanopyrimido[4,5-b][1,4]diazepine-9(6H)-carboxamide] | B (EC1.5 1-25 μM) | A (Fold activation ≥150%) |
| O=C(Nc1ccnc(O[C@H]2CCOC2)n1)N1c2nc(-c3cccc(C(F)(F)F)c3)ncc2N2CC[C@H]1C2 [Example 25, (8S)—N-(2-(((S)-tetrahydrofuran-3-yl)oxy)pyrimidin-4-yl)-2-(3-(trifluoro-methyl)phenyl)-7,8-dihydro-5,8-methanopyrimido[4,5-b][1,4]diazepine-9(6H)-carboxamide] | B (EC1.5 1-25 μM) | A (Fold activation ≥150%) |
